Tested on: Grippevirus A/Vladivostok/2/09 (H1N1)
Assay: Survival of mice infected with a lethal dose of influenza virus, peroral treatment for 5 days
Assay type: in vivo, Mäuse
Settings: for To-des-fälle / Überleben-de Mäuse / MLD, Tage (mittlere Lebensdauer innerhalb der Beobachtungsfrist) / Sterblichkeit % / MLD-Erhöhung, Tage / Schutzkennzahl, %: Tamiflu 30 mg/kg; for MLD-Erhöhung, Tage / Schutzkennzahl, %: versus Placebo
Description: Die Wirksamkeit des Mittels wurde an einem Modell der Überlebensfähigkeit von angesteckten Versuchstieren geprüft. Die Versuchstiere wurden mit einer tödlichen Dosis des Grippevirus A/Vladivostok/2/09 (H1N1) angesteckt. Während der Forschung wurde das erfindungsgemäße Mittel 5 Tage lang peroral verabreicht.
Als Versuchstiere wurden weiße männliche Auszucht-Mäuse mit einem Körpergewicht von 16 - 18 g aus der Aufzuchtstation Rappolovo der Russischen Akademie der medizinischen Wissenschaften verwendet. Vor der Prüfung wurden die Versuchstiere einer Quarantäne in einem Vivarium im Laufe einer Woche unterzogen. Die Versuchstiere wurden unter genormten Klima-Bedingungen mit ausgewogener Fütterung gehalten. Jede Gruppe enthielt je 30 Versuchstiere.
Um eine versuchsmäßige Grippe-Infektion zu simulieren, wurde ein bestimmter Virusstamm eingesetzt. Die Versuchstiere wurden mit dem A/Vladivostok/2/09 (H1N1)-Virus in Mengen von 1 und 10 DL50 intranasal angesteckt.
Die Behandlung der angesteckten Mäuse wurde 24 Stunden nach der Ansteckung begonnen. Die Präparate wurden intragastrisch mittels einer Sonde verabreicht. Bei diesen Präparaten handelte es sich um eine Lösung in einer physiologischen Kochsalzlösung. Die Dosis des Arzneimittels wurde pro ein kg des Körpergewichts des Tieres berechnet. Die Behandlung wurde im Laufe von 5 Tagen vorgenommen. Die Wirksamkeit des Mittels wurde anhand der Überlebensraten der Tiere am 21. Tag nach der Ansteckung beurteilt.
Die erste Gruppe der Versuchstiere erhielt eine Lösung von Glutamyltryptophan und Natriumsalz der Glycyrrhizinsäure (nachfolgend GTGS); die zweite Gruppe der Tiere erhielt ein Präparat Tamiflu (Handelsnahme des Präparats Oseltamyvir) in der Dosis von 30 mg/kg; die dritte Gruppe der Tiere erhielt eine physiologische Kochsalzlösung (Placebo).

[1] = Virus-Dosis 1 (DL50), 15 animals per group, peroral day 1 to 5 after infection
[2] = Virus-Dosis 1 (DL50), peroral day 1 to 5 after infection
[3] = Virus-Dosis 10 (DL50), 15 animals per group, peroral day 1 to 5 after infection
[4] = Virus-Dosis 10 (DL50), peroral day 1 to 5 after infection
[5] = Virus-Dosis Gesamtdosis (both virus doses pooled), 30 animals, peroral day 1 to 5 after infection
[6] = Virus-Dosis Gesamtdosis (both virus doses pooled), peroral day 1 to 5 after infection
[7] = Virus-Dosis Gesamtdosis (both virus doses pooled)

For CCOC(=O)C1=C[C@@H](OC(CC)CC)[C@H](NC(C)=O)[C@@H](N)C1 [Tamiflu, Oseltamyvir], the To-des-fälle [1] was 6, the “Überleben-de Mäuse” value [1] was 9 and the “MLD, Tage (mittlere Lebensdauer innerhalb der Beobachtungsfrist)” value (“MLD, Tage” for short) [2] was 11,7 Tage. For the same compound, the Sterblichkeit % [2] was 40,0%, the “MLD-Erhöhung, Tage” value [2] was 1,1 Tage and the “Schutzkennzahl, %” value [2] was 25,0%. For the same compound, the To-des-fälle [3] was 12, the “Überleben-de Mäuse” value [3] was 3 and the “MLD, Tage” value [4] was 9,0 Tage. For the same compound, the Sterblichkeit % [4] was 80,0%, the “MLD-Erhöhung, Tage” value [4] was 1,9 Tage and the “Schutzkennzahl, %” value [4] was 14,3%. The To-des-fälle [5] was 18, the “Überleben-de Mäuse” value [5] was 12 and the “MLD, Tage” value [6] was 10,4 Tage. For the same compound, the Sterblichkeit % [6] was 60,0%, the “MLD-Erhöhung, Tage” value [7] was 1,5 Tage and the “Schutzkennzahl, %” value [7] was 18,2%. It also gave a Todesfälle (virus dose 10 DL50, 30 mg/kg) of 80%.

— patent EP2918282A1, “Pharmaceutical composition for the treatment of virus diseases, such as flu” (OOO "CytoNIR", priority 2014, dated 2015)
